Molecules are shown by their SMILES.

The values below come from article PMC3034256 (Chemistry & biology, 2011).

Test [1] deals with panel of PTPs. The test is described as follows: Screen against a panel of PTPs at 10 µM. It is filed as biochemical. The following applies: 10 µM compound, pNPP, pH 7, 25 °C.
The test system of test [2] is Jurkat T cells. The test is described as follows: TCR-mediated tyrosine phosphorylation in Jurkat T cells. The following applies: 2 h pretreatment (2 µM; TTN 2–4 µM), 10 µg/mL anti-CD3. It is filed as cell-based.
Test [3] relates to Jurkat T cells. The test is described as follows: TCR-mediated ERK1/2 activation in Jurkat T cells. It is filed as cell-based. The conditions noted are these: 2 h pretreatment (2 µM), 10 µg/mL anti-CD3.

`CO[C@H]([C@H](O)CC(=O)[C@@H](C)[C@@H](O)CC[C@@H](C)[C@@H]1O[C@]2(CC[C@@H](C)[C@H](CC[C@H](C)C(C)=O)O2)CC[C@@H]1C)[C@H](OC(=O)C[C@@H](O)C1=C(C)C(=O)OC1=O)C(C)C` [TTM, tautomycin, reference compound]: the “inhibitory activity against the panel of PTPs” value in test [1] was “neither TTM nor its analogs exhibited any inhibitory activity”. The “effect on TCR-mediated tyrosine phosphorylation” value in test [2] is “had no effect”. Also, the “effect on TCR-mediated ERK1/2 activation” value in test [3] is recorded as “no appreciable change”.
